Earlier results on one compound are cited in US20200022905A1 (priority 2009, published 2020).

Where two headings read alike, the source gives them in different places.

For data set [1] the following is noted: especially by non-smokers.
Experiment in data set [2]: not given
This is another data set of the same source.

On to `CN1CCCC1c1cccnc1` (stereo not shown) [Nicotine], for which the “time to get to the brain after smoke inhalation” value was “ten to twenty”. The “dose after which serious toxic reactions may be experienced” value in data set [1] was 4 to 8 mg. Further, the “ratio of non-ionized form” value in data set [2] (pH 7.4) is 30%. Besides, in data set [2] (pH 8.5), the “ratio of non-ionized form” value is given as 80%.
